From US4713445A, “Renin inhibitors and treatments using them” (priority 1983, dated 1987)
*1 amine or outer side, *2 acyl side, *3 side chain or, on linkers, in order; H or OH if unused. Where a SMILES comes first, the peptide text is derived from it. [ ]: non-standard residue; d: D form. The star is where a group is joined. Leuψ(CH2NH)ValIleHisOH = CC[C@H](C)[C@H](NC(=O)[C@@H](NC[C@H](CC(C)C)N*)C(C)C)C(=O)N[C@@H](Cc1c[nH]cn1)C(=O)O; X5 = CC(C)C[C@@H](CN[C@H](C(=O)N[C@@H](Cc1c[nH]cn1)C(=O)NCCCCCN)C(C)C)N*; X2 = CC(C)C[C@@H](CN[C@H](C(=O)N[C@@H](Cc1c[nH]cn1)C(=O)NCCCN)C(C)C)N*; X1 = CC(C)C[C@H](N[*:1])[C@@H](O)C[C@H](C(=O)[*:2])C(C)C; X4 = CC(C)C[C@H](N[*:1])[C@@H](O)CCC(=O)[*:2]; Boc = CC(C)(C)OC(=O)*

Target: T1, human renin (Homo sapiens, UniProt P00797)
T1 construct: angiotensin-I released from human renin substrate by human resin in human plasma; from tissue; host or cells: human plasma (containing EDTA)
T1 sequence (P00797 67-406): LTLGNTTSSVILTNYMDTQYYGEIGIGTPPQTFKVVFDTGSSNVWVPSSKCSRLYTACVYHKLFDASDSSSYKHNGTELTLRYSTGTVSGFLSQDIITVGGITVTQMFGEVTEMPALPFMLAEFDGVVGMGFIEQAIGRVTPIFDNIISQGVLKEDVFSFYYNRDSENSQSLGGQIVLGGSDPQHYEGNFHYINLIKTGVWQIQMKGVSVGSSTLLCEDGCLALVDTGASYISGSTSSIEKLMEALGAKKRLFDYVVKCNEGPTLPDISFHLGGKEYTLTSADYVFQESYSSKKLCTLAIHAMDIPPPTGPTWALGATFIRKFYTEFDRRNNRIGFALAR
Test: human renin-renin substrate reaction in vitro; radioimmunoassay of angiotensin-I released in human plasma
Type: biochemical
Settings: Table 2; read-out: IC50 μM v/s human renin
Description: Preliminary activity test results in the human […] substrate reaction in vitro are given, with comparative figures for the tetrapeptide analogue (III). […] The test results given herein are based on the methods described by J. A. Miller et al in Clinica Chimica Acta (1980) 101 5-15 and K. Poulsen and J. Jorgensen in J. Clin. Endocrinol. Metab. (1974) 39 816, and is based on the measurement, by radioimmunoassay, of angiotensin-I released from human renin substrate by human resin in human plasma. The inhibitor is dissolved in 0.01N HCl (10 μl) and added to hmman plasma (75 μl) containing EDTA, and angiotensin-I antibody (15 μl) in 3M-Tris/HCl buffer (pH 6.9). After incubation at 37° C. for 0-120 minutes, the enzymic reaction is quenched by the addition of ice-cold 0.25M Tris/HCl buffer (pH 7.4) containing 0.01% of bovine serum albumin. 125I-labelled angiotensin-I is added, followed by equilibration at 4° C. for 48 hours. Free and bound ligand are separated by the addition of dextrancoated charcoal, and the amount of bound radio-ligand determined in a gamma counter.

IC50	Structure (SMILES)
5 µM	CC[C@H](C)[C@H](NC(=O)[C@@H](C[C@H](O)[C@H](CC(C)C)NC(=O)[C@H](Cc1c[nH]cn1)NC(=O)[C@@H](N)Cc1ccccc1)C(C)C)C(=O)N[C@@H](Cc1c[nH]cn1)C(=O)O [Example XLVII] (H-FH[X1]IH-OH)
0.007 µM	CC[C@H](C)[C@H](NC(=O)[C@@H](C[C@H](O)[C@H](CC(C)C)NC(=O)[C@H](Cc1c[nH]cn1)NC(=O)[C@H](Cc1ccccc1)NC(=O)OC(C)(C)C)C(C)C)C(=O)N[C@@H](Cc1c[nH]cn1)C(=O)O [Example XLVI] (Boc-FH[X1]IH-OH)
29 µM	CC[C@H](C)[C@H](NC(=O)[C@@H](C[C@H](O)[C@@H](N)CC(C)C)C(C)C)C(=O)N[C@@H](Cc1c[nH]cn1)C(=O)O [XLIII]
0.018 µM	CC[C@H](C)[C@H](NC(=O)[C@@H](C[C@H](O)[C@H](CC(C)C)NC(=O)[C@H](Cc1c[nH]cn1)NC(=O)[C@H](Cc1ccccc1)NC(=O)OC(C)(C)C)C(C)C)C(=O)N[C@@H](Cc1ccccc1)C(=O)OC [XLIX] (Boc-FH[X1]IF-OMe)

Continued, molecule first:

Structure (SMILES)	IC50
CC[C@H](C)[C@H](NC(=O)[C@@H](C[C@H](O)[C@H](CC(C)C)NC(=O)[C@H](Cc1c[nH]cn1)NC(=O)[C@H](Cc1ccccc1)NC(=O)OC(C)(C)C)C(C)C)C(=O)N[C@@H](Cc1c[nH]cn1)C(=O)OC [Example LI] (Boc-FH[X1]IH-OMe)	0.0035 µM
CC[C@H](C)[C@H](NC(=O)[C@@H](C[C@H](O)[C@H](CC(C)C)NC(=O)[C@H](Cc1c[nH]cn1)NC(=O)[C@H](Cc1ccccc1)NC(=O)OC(C)(C)C)C(C)C)C(=O)OC [Example L]	0.005 µM
CC[C@H](C)[C@H](NC(=O)[C@@H](C[C@H](O)[C@@H](N)CC(C)C)C(C)C)C(=O)N[C@@H](Cc1c[nH]cn1)C(=O)N[C@@H](CCCCN)C(=O)O [Example XLI]	11 µM
CC[C@H](C)[C@H](NC(=O)CC[C@H](O)[C@H](CC(C)C)NC(=O)[C@H](Cc1c[nH]cn1)NC(=O)[C@H](Cc1ccccc1)NC(=O)OC(C)(C)C)C(=O)N[C@@H](Cc1c[nH]cn1)C(=O)O [Example XLVIII] (Boc-FH[X4]IH-OH)	0.3 µM

Same assay, conditions: Table 5; human renin-renin substrate reaction in vitro; read-out: IC50

IC50	Structure (SMILES)
1 µM	CC(C)C[C@@H](CN[C@@H](CC(C)C)C(=O)N[C@H](C(=O)N[C@@H](Cc1ccc(O)cc1)C(=O)O)C(C)C)NC(=O)[C@H](Cc1c[nH]cn1)NC(=O)[C@H](Cc1ccccc1)NC(=O)[C@@H]1CCCN1C(=O)[C@@H](N)Cc1c[nH]cn1 [Example I, H-His-Pro-Phe-His-Leu-reduced-Leu-Val-Tyr-OH]
17 µM	CC(C)C[C@@H](CN[C@@H](CC(C)C)C(=O)N[C@H](C(=O)N[C@@H](Cc1ccc(O)cc1)C(=O)O)C(C)C)NC(=O)[C@H](Cc1c[nH]cn1)NC(=O)[C@H](Cc1ccccc1)NC(=O)[C@@H]1CCCN1 [Example II, H-Pro-Phe-His-Leu-reduced-Leu-Val-Tyr-OH]
1.5 µM	CC(C)C[C@@H](CN([C@@H](CC(C)C)C(=O)N[C@H](C(=O)N[C@@H](Cc1ccc(O)cc1)C(=O)O)C(C)C)S(=O)(=O)c1ccccc1)NC(=O)[C@H](Cc1c[nH]cn1)NC(=O)[C@H](Cc1ccccc1)NC(=O)[C@@H]1CCCN1C(=O)[C@@H](N)Cc1c[nH]cn1 [Example III, H-His-Pro-Phe-His-Leu-reduced (SO2 Ph)-Leu-Val-Tyr-OH]
1 µM	CC(C)C[C@@H](CN[C@@H](CC(C)C)C(=O)N[C@H](C(=O)N[C@@H](Cc1ccc(O)cc1)C(=O)O)C(C)C)NC(=O)[C@H](Cc1c[nH]cn1)NC(=O)[C@H](Cc1ccccc1)NC(=O)[C@@H]1CCCN1C(=O)[C@H](N)Cc1c[nH]cn1 [Example IV, H-DHis-Pro-Phe-His-Leu-reduced-Leu-Val-Tyr-OH]
2.5 µM	CC(C)C[C@@H](CN[C@@H](Cc1ccccc1)C(=O)N[C@H](C(=O)N[C@@H](Cc1ccc(O)cc1)C(=O)O)C(C)C)NC(=O)[C@H](Cc1c[nH]cn1)NC(=O)[C@H](Cc1ccccc1)NC(=O)[C@@H]1CCCN1C(=O)[C@@H](N)Cc1c[nH]cn1 [Example IX]
0.26 µM	CC[C@H](C)[C@H](NC(=O)[C@@H](NC[C@H](CC(C)C)NC(=O)[C@H](Cc1c[nH]cn1)NC(=O)[C@H](Cc1ccccc1)NC(=O)[C@@H]1CCCN1C(=O)[C@@H](N)Cc1c[nH]cn1)C(C)C)C(=O)N[C@@H](Cc1c[nH]cn1)C(=O)O [Example V, H-His-Pro-Phe-His-Leu-reduced-Val-Ile-His-OH] (H-HPFH-{Leuψ(CH2NH)ValIleHisOH})
1.3 µM	CC(C)[C@H](NC(=O)[C@H](Cc1ccccc1)NC[C@H](Cc1ccccc1)NC(=O)[C@H](Cc1c[nH]cn1)NC(=O)[C@H](Cc1ccccc1)NC(=O)[C@@H]1CCCN1C(=O)[C@@H](N)Cc1c[nH]cn1)C(=O)N[C@@H](Cc1ccc(O)cc1)C(=O)O [Example VIII]
1.5 µM	CC(C)C[C@@H](CN[C@H](C(=O)N[C@H](C(=O)N[C@@H](Cc1ccc(O)cc1)C(=O)O)C(C)C)C(C)C)NC(=O)[C@H](Cc1c[nH]cn1)NC(=O)[C@H](Cc1ccccc1)NC(=O)[C@@H]1CCCN1C(=O)[C@@H](N)Cc1c[nH]cn1 [Example XII]
0.05 µM	CC(C)[C@H](NC(=O)[C@H](Cc1ccccc1)NC[C@H](Cc1ccccc1)NC(=O)[C@H](Cc1c[nH]cn1)NC(=O)[C@H](Cc1ccccc1)NC(=O)[C@@H]1CCCN1C(=O)[C@H](Cc1c[nH]cn1)NC(=O)[C@@H]1CCCN1)C(=O)N[C@@H](Cc1ccc(O)cc1)C(=O)N[C@@H](CCCCN)C(=O)O [Example XI]
0.2 µM	CC[C@H](C)[C@H](NC(=O)[C@@H](NC[C@H](CC(C)C)NC(=O)[C@H](Cc1c[nH]cn1)NC(=O)[C@H](Cc1ccccc1)NC(=O)[C@@H]1CCCN1C(=O)[C@@H](N)Cc1c[nH]cn1)C(C)C)C(=O)N[C@@H](Cc1ccc(O)cc1)C(=O)O [Example X]

Same assay, conditions: Table I; human renin in human plasma; read-out: IC50, μM human

IC50	Structure (SMILES)
0.2 µM	CC[C@H](C)[C@H](NC(=O)[C@@H](NC[C@H](CC(C)C)NC(=O)[C@H](Cc1c[nH]cn1)NC(=O)[C@H](Cc1ccccc1)NC(=O)[C@@H]1CCCN1C(=O)[C@@H](Cc1c[nH]cn1)NC(=O)[C@@H]1CCCN1)C(C)C)C(=O)N[C@@H](Cc1c[nH]cn1)C(=O)N[C@H](CCCCN)C(=O)O [Example XL]
0.008 µM	CC[C@H](C)[C@H](NC(=O)[C@@H](NC[C@H](CC(C)C)NC(=O)[C@H](Cc1c[nH]cn1)NC(=O)[C@H](Cc1ccccc1)NC(=O)[C@@H]1CCCN1C(=O)[C@H](Cc1c[nH]cn1)NC(=O)[C@@H]1CCCN1)C(C)C)C(=O)N[C@@H](Cc1c[nH]cn1)C(=O)N[C@@H](CCCCN)C(=O)O [XIX]
3 µM	CC(C)C[C@@H](CN[C@H](C(=O)N[C@@H](Cc1c[nH]cn1)C(=O)NCCCCCN)C(C)C)NC(=O)[C@H](Cc1c[nH]cn1)NC(=O)[C@H](Cc1ccccc1)NC(=O)[C@@H]1CCCN1C(=O)[C@H](Cc1c[nH]cn1)NC(=O)[C@@H]1CCCN1 [XVIII] (H-PHPFH-X5)
4.5 µM	CC(C)C[C@@H](CN[C@H](C(=O)N[C@@H](Cc1c[nH]cn1)C(=O)NCCCN)C(C)C)NC(=O)[C@H](Cc1c[nH]cn1)NC(=O)[C@H](Cc1ccccc1)NC(=O)[C@@H]1CCCN1C(=O)[C@H](Cc1c[nH]cn1)NC(=O)[C@@H]1CCCN1 [XVII] (H-PHPFH-X2)
1 µM	CC[C@H](C)[C@H](NC(=O)[C@@H](NC[C@H](CC(C)C)NC(=O)[C@H](Cc1c[nH]cn1)NC(=O)[C@H](Cc1ccccc1)NC(=O)[C@@H]1CCCN1C(=O)[C@@H](N)Cc1c[nH]cn1)C(C)C)C(=O)N[C@H](Cc1ccc(O)cc1)C(=O)O [XVI]
